Measured values from the kinase profiling compilation of Christmann-Franck et al. (2016).
Values joined by “and” are separate entries in the source; they are usually repeats but may differ in a detail not shown here. Equal values may be shown once.

Key:
Assay in all cases: radiometric filter-binding kinase assay, Kinase HotSpot
Settings in all cases: compound 0.5 µM; ATP 10 µM
ADRBK1 (human) = ADRBK1 (human) (UniProt P25098)
CDK9 CCNT1 (human) = CDK9 CCNT1 (human) (UniProt P50750+O60563)
RPS6KA1 KD1 KD2 (human) = RPS6KA1 KD1 KD2 (human) (UniProt Q15418)
MAPK9 (human) = MAPK9 (human) (UniProt P45984)
CDK6 CCND1 (human) = CDK6 CCND1 (human) (UniProt Q00534+P24385)
MAP3K11 (human) = MAP3K11 (human) (UniProt Q16584)
SRPK1 (human) = SRPK1 (human) (UniProt Q96SB4)
NTRK3 (human) = NTRK3 (human) (UniProt Q16288)
LTK (human) = LTK (human) (UniProt P29376)
RPS6KA5 KD2 (human) = RPS6KA5 KD2 (human) (UniProt O75582)
STK24 (human) = STK24 (human) (UniProt Q9Y6E0)
NEK1 (human) = NEK1 (human) (UniProt Q96PY6)
NTRK2 (human) = NTRK2 (human) (UniProt Q16620)
PAK6 (human) = PAK6 (human) (UniProt Q9NQU5)
NEK3 (human) = NEK3 (human) (UniProt P51956)
NEK11 (human) = NEK11 (human) (UniProt Q8NG66)
CLK4 (human) = CLK4 (human) (UniProt Q9HAZ1)
RPS6KB2 (human) = RPS6KB2 (human) (UniProt Q9UBS0)
EPHB1 (human) = EPHB1 (human) (UniProt P54762)
CSNK1A1 (human) = CSNK1A1 (human) (UniProt P48729)
CAMK1 (human) = CAMK1 (human) (UniProt Q14012)
LYN (human) = LYN (human) (UniProt P07948)
PTK2 (human) = PTK2 (human) (UniProt Q05397)
MAPK3 (human) = MAPK3 (human) (UniProt P27361)
PNCK (human) = PNCK (human) (UniProt Q6P2M8)
FGFR2 (human) = FGFR2 (human) (UniProt P21802)
SRMS (human) = SRMS (human) (UniProt Q9H3Y6)
NUAK1 (human) = NUAK1 (human) (UniProt O60285)
MLTK (human) = MLTK (human) (UniProt Q9NYL2)
RET (human) = RET (human) (UniProt P07949)
PRKG1 (human) = PRKG1 (human) (UniProt Q13976)
SRPK2 (human) = SRPK2 (human) (UniProt P78362)
PRKCH (human) = PRKCH (human) (UniProt P24723)
FYN (human) = FYN (human) (UniProt P06241)
[1] = target: JAK1 JH1 catalytic (human) (UniProt P23458)
ULK1 (human) = ULK1 (human) (UniProt O75385)
PHKG2 (human) = PHKG2 (human) (UniProt P15735)
TTK (human) = TTK (human) (UniProt P33981)
MELK (human) = MELK (human) (UniProt Q14680)
PTK6 (human) = PTK6 (human) (UniProt Q13882)

Sequence of RPS6KA1 KD1 KD2 (human) (Q15418 whole entry, looked up): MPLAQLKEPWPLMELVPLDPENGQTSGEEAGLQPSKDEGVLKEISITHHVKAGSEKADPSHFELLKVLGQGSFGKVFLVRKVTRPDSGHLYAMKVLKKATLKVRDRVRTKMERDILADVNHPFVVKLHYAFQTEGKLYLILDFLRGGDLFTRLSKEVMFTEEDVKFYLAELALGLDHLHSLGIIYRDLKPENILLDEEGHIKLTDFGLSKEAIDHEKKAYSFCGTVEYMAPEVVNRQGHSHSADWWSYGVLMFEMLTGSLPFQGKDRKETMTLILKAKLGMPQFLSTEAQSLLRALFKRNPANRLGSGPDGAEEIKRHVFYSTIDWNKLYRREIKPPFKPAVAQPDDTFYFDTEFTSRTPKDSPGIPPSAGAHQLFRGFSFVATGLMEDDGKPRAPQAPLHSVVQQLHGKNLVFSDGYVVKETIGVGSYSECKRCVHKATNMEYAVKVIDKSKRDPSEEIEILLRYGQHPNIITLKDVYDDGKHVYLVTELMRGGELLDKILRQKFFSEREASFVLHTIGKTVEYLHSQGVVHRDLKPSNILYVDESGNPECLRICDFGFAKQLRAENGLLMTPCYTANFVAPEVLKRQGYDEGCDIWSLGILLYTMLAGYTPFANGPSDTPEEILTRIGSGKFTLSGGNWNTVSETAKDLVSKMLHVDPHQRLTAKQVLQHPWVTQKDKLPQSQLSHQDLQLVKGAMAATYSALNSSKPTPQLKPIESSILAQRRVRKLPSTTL
Sequence of FGFR2 (human) (P21802 whole entry, looked up): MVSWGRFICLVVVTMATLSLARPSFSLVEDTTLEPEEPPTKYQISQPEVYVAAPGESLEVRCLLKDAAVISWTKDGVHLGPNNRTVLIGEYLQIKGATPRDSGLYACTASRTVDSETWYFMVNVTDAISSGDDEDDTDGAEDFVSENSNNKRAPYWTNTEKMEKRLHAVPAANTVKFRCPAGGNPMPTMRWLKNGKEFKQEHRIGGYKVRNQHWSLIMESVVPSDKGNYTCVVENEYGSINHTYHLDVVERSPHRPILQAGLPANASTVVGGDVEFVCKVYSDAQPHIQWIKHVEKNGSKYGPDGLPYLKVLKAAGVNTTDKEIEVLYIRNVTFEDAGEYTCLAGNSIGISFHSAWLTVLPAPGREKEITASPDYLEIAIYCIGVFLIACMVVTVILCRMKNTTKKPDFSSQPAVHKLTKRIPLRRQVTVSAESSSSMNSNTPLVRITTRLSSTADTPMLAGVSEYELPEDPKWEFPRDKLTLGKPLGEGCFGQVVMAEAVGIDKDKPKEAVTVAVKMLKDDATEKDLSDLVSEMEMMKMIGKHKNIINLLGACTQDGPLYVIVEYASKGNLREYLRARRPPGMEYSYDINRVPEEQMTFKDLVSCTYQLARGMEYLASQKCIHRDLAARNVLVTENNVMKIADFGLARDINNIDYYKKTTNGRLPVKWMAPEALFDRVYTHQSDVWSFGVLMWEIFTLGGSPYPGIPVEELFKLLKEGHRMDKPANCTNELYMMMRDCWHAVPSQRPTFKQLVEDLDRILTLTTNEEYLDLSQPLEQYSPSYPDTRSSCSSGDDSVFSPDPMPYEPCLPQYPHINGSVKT
Sequence of NTRK3 (human) (Q16288 whole entry, looked up): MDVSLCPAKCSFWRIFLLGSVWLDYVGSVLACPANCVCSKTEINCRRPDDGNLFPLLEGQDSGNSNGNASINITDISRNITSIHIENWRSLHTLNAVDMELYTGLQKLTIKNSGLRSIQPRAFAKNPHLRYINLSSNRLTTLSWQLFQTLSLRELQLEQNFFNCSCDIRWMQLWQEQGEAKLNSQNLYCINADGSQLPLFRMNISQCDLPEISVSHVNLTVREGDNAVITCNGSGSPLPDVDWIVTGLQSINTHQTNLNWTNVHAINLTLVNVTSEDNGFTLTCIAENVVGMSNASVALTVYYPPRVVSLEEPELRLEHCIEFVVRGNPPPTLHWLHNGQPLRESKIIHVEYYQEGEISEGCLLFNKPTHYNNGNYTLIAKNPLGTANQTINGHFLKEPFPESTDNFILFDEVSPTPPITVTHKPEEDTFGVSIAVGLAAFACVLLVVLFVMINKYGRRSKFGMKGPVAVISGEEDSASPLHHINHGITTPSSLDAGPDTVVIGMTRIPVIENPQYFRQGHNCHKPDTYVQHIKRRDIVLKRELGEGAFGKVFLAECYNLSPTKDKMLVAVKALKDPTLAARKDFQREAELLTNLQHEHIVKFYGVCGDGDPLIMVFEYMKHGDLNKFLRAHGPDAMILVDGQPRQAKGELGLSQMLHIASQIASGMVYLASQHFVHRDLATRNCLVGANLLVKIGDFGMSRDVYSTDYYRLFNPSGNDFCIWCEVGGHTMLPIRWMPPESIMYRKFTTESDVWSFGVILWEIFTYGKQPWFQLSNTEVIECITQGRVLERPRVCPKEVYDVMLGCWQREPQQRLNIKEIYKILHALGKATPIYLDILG
Sequence of LYN (human) (P07948 whole entry, looked up): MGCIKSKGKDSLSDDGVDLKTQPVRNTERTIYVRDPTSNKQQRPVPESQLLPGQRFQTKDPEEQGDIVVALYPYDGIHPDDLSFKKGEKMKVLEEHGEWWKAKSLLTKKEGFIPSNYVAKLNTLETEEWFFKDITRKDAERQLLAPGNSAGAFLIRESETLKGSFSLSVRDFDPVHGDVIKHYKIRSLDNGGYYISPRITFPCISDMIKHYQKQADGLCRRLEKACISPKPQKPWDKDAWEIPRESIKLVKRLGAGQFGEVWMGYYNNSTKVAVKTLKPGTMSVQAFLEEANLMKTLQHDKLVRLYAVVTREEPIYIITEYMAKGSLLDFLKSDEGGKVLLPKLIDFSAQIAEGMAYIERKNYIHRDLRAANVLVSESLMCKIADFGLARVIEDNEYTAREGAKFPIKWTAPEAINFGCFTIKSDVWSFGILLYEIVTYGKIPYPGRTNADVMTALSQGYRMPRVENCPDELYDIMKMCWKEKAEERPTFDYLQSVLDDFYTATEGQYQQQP
Sequence of JAK1 JH1 catalytic (human) (P23458 whole entry, looked up): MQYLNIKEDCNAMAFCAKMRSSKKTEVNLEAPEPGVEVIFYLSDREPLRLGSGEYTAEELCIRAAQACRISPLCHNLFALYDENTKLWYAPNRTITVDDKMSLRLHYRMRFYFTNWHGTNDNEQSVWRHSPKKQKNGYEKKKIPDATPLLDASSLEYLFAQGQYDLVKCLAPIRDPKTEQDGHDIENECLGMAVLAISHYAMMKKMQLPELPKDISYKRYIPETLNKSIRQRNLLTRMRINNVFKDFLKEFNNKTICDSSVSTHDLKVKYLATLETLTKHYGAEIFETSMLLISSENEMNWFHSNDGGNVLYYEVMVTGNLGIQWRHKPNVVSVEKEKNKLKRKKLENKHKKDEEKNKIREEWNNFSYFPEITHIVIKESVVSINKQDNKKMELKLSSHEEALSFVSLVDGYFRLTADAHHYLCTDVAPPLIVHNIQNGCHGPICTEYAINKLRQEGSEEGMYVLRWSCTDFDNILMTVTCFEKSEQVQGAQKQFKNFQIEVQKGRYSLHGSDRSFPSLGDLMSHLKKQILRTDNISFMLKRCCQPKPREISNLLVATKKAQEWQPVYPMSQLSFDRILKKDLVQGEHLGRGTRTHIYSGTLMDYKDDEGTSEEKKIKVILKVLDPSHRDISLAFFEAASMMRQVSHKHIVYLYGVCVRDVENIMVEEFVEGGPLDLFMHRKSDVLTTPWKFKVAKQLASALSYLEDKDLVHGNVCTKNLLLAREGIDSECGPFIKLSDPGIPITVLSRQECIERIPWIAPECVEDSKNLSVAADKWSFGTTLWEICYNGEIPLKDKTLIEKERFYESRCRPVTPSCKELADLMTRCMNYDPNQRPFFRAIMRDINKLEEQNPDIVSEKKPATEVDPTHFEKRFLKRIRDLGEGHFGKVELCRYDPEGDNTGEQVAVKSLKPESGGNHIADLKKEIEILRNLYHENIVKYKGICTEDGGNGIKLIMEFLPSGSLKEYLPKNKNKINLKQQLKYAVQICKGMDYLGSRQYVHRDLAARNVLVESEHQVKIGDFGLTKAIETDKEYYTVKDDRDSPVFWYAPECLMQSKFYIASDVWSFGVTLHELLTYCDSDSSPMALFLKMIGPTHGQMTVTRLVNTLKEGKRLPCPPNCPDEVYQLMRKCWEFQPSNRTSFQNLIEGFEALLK
Sequence of MELK (human) (Q14680 whole entry, looked up): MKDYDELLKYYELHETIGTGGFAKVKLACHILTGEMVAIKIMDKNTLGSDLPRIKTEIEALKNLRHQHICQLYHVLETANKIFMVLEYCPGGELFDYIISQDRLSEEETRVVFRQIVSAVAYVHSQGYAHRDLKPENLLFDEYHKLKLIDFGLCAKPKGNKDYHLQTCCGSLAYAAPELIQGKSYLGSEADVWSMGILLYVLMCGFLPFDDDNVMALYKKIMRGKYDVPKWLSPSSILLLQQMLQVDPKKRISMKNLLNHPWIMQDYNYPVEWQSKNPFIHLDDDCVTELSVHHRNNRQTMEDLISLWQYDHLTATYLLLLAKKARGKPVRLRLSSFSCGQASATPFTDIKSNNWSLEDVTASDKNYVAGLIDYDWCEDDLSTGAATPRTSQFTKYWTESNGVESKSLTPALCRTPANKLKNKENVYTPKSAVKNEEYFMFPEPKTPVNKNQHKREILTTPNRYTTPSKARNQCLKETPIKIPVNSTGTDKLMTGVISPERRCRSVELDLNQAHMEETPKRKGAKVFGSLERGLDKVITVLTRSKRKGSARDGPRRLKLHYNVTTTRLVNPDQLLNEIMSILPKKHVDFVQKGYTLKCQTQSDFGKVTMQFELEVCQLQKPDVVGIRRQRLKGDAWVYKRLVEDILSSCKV
Sequence of PNCK (human) (Q6P2M8 whole entry, looked up): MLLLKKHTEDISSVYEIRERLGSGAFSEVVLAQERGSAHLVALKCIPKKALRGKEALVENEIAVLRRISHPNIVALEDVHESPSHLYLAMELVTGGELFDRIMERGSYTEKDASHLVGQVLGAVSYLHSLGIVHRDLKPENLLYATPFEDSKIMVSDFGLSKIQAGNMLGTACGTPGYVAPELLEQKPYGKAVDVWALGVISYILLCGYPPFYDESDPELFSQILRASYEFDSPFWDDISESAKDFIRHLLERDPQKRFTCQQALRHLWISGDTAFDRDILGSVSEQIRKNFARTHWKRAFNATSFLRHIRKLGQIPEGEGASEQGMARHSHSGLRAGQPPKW

SMILES	residual activity (ADRBK1 (human))	residual activity (CDK9 CCNT1 (human))	residual activity (RPS6KA1 KD1 KD2 (human))	residual activity (CDK6 CCND1 (human))	residual activity (MAP3K11 (human))	residual activity (NTRK3 (human))	residual activity (LTK (human))	residual activity (RPS6KA5 KD2 (human))	residual activity (STK24 (human))	residual activity (NEK1 (human))	residual activity (NTRK2 (human))	residual activity (PAK6 (human))	residual activity (NEK3 (human))	residual activity (NEK11 (human))	residual activity (CLK4 (human))	residual activity (RPS6KB2 (human))	residual activity (EPHB1 (human))	residual activity (CSNK1A1 (human))	residual activity (CAMK1 (human))	residual activity (LYN (human))	other results
Clc1ccc(Nc2nnc(Cc3ccncc3)c3ccccc23)cc1	102%	94.9%	113%	93%	106%	92.7%	105%	85.5%	98.7%	75.3%	102%	107%	94.1%	87%	108%	101%	107%	95%	100%	110% and 91.8%	residual activity (MAPK9 (human)): 97.5%; residual activity (SRPK1 (human)): 98.5%; residual activity (PTK2 (human)): 101%; residual activity (MAPK3 (human)): 94.7%; residual activity (PNCK (human)): 103%; residual activity (FGFR2 (human)): 96%; residual activity (SRMS (human)): 91.8%; residual activity (NUAK1 (human)): 112%; residual activity (MLTK (human)): 90.3%; residual activity (RET (human)): 89.1%; residual activity (PRKG1 (human)): 94.1% and 97.2%; residual activity (SRPK2 (human)): 96.5%; residual activity (PRKCH (human)): 105%; residual activity (FYN (human)): 104%; residual activity [1]: 107%; residual activity (ULK1 (human)): 107%; residual activity (PHKG2 (human)): 91.8%; residual activity (TTK (human)): 108%; residual activity (MELK (human)): 83.7%
COc1cc2ncnc(Nc3ccc(F)c(Cl)c3)c2cc1OCCCN1CCOCC1	93.3%	87.3%	97.3%	98.7%	102%	103%	90.4%	100%	102%	90.4%	98.2%	105%	94.4%	109%	107%	101%	94.8%	98.6%	102%	57.1% and 67.8%	residual activity (MAPK9 (human)): 95.5%; residual activity (SRPK1 (human)): 98.3%; residual activity (PTK6 (human)): 77.2%; residual activity (PTK2 (human)): 103%; residual activity (MAPK3 (human)): 100%; residual activity (PNCK (human)): 108%; residual activity (FGFR2 (human)): 98.7%; residual activity (SRMS (human)): 96.4%; residual activity (NUAK1 (human)): 99.1%; residual activity (MLTK (human)): 96.2%; residual activity (RET (human)): 76.9%; residual activity (PRKG1 (human)): 103% and 87.5%; residual activity (SRPK2 (human)): 99.5%; residual activity (FYN (human)): 92.2%; residual activity [1]: 102%; residual activity (ULK1 (human)): 93%; residual activity (PHKG2 (human)): 93.9%; residual activity (TTK (human)): 96.3%; residual activity (MELK (human)): 77.7%
C#Cc1cccc(Nc2ncnc3cc(OCCOC)c(OCCOC)cc23)c1	92.9%	87.3%	97.6%	98.7%	104%	96%	66.3%	96.8%	115%	73.8%	93.1%	104%	95.6%	114%	101%	103%	100%	98.6%	98.9%	72.5% and 75.4%	residual activity (PTK6 (human)): 85.9%; residual activity (PTK2 (human)): 108%; residual activity (MAPK3 (human)): 101%; residual activity (PNCK (human)): 103%; residual activity (FGFR2 (human)): 83.4%; residual activity (SRMS (human)): 93.2%; residual activity (NUAK1 (human)): 98%; residual activity (MLTK (human)): 92.2%; residual activity (RET (human)): 48.6%; residual activity (PRKG1 (human)): 85.6% and 93.5%; residual activity (SRPK2 (human)): 101%; residual activity (PRKCH (human)): 116%; residual activity (FYN (human)): 94.7%; residual activity [1]: 91.2%; residual activity (ULK1 (human)): 113%; residual activity (PHKG2 (human)): 97.9%; residual activity (TTK (human)): 91.8%; residual activity (MELK (human)): 88.6%
